Each molecule was assayed on Alopecurus myosuroides (ALOMY) (assay: Example B pre-emergence herbicidal activity, glasshouse pot test). Settings: 312 h, rate 250 g/ha, evaluated after 13 days, read-out: Pre-emergence activity ALOMY (100=total damage to plant; 0=no damage to plant).
Format: in vivo
Protocol: (§1) Seeds of a variety of test species were sown in standard soil in pots. After cultivation for one day (pre-emergence) or after 8 days cultivation (post-emergence) under controlled conditions in a glasshouse (at 24/16° C., day/night; 14 hours light; 65% humidity), the plants were sprayed with an aqueous spray solution derived from the formulation of the technical active ingredient in acetone/water (50:50) solution containing 0.5% Tween 20 (polyoxyethelyene sorbitan monolaurate, CAS RN 9005-64-5). The test plants were then grown in a glasshouse under controlled conditions in a glasshouse (at 24/16° C., day/night; 14 hours light; 65% humidity) and watered twice daily. After 13 days for pre and post-emergence, the test was evaluated (100=total damage to plant; 0=no damage to plant).
(§2) Alopecurus myosuroides (ALOMY), Avena fatua (AVEFA), Setaria faberi (SETFA), Echinochloa crus-galli (ECHCG), Solanum nigrum (SOLNI) and Amaranthus retroflexus (AMARE)

Row | Compound | pest or weed control at 250 g/ha [%]
1 | CCc1ccc(-c2ccc(Cl)c(C(F)(F)F)c2)cc1C1=C(O)C(C)(C)OC(C)(C)C1=O [Compound A-67] | 40
2 | CCc1ccc(-c2ccc(Cl)c(C#N)c2)cc1C1=C(O)C(C)(C)OC(C)(C)C1=O [Compound A-69] | 0
3 | CCc1ccc(-c2ccc(Cl)cc2C(F)(F)F)cc1C1=C(O)C(C)(C)OC(C)(C)C1=O [Compound A-72] | 0
4 | CCc1ccc(-c2cnc(Cl)cc2C)cc1C1=C(O)C(C)(C)OC(C)(C)C1=O [Compound A-73] | 0

What follows are molecules tested on Amaranthus retroflexus (AMARE) in the same assay as above. Settings: 312 h, rate 250 g/ha, evaluated after 13 days, read-out: Pre-emergence activity AMARE (100=total damage to plant; 0=no damage to plant).
Format: in vivo
Protocol: as §1, §2

Row | Compound | pest or weed control at 250 g/ha [%]
5 | CCc1ccc(-c2ccc(Cl)c(C(F)(F)F)c2)cc1C1=C(O)C(C)(C)OC(C)(C)C1=O [Compound A-67] | 0
6 | CCc1ccc(-c2ccc(Cl)c(C#N)c2)cc1C1=C(O)C(C)(C)OC(C)(C)C1=O [Compound A-69] | 0
7 | CCc1ccc(-c2ccc(Cl)cc2C(F)(F)F)cc1C1=C(O)C(C)(C)OC(C)(C)C1=O [Compound A-72] | 0
8 | CCc1ccc(-c2cnc(Cl)cc2C)cc1C1=C(O)C(C)(C)OC(C)(C)C1=O [Compound A-73] | 0

These molecules were tested on Avena fatua (AVEFA) in the same assay as above. Settings: 312 h, rate 250 g/ha, evaluated after 13 days, read-out: Pre-emergence activity AVEFA (100=total damage to plant; 0=no damage to plant).
Format: in vivo
Protocol: as §1, §2

Row | Compound | pest or weed control at 250 g/ha [%]
9 | CCc1ccc(-c2ccc(Cl)c(C(F)(F)F)c2)cc1C1=C(O)C(C)(C)OC(C)(C)C1=O [Compound A-67] | 0
10 | CCc1ccc(-c2ccc(Cl)c(C#N)c2)cc1C1=C(O)C(C)(C)OC(C)(C)C1=O [Compound A-69] | 0
11 | CCc1ccc(-c2ccc(Cl)cc2C(F)(F)F)cc1C1=C(O)C(C)(C)OC(C)(C)C1=O [Compound A-72] | 0
12 | CCc1ccc(-c2cnc(Cl)cc2C)cc1C1=C(O)C(C)(C)OC(C)(C)C1=O [Compound A-73] | 0

These molecules were tested on Echinochloa crus-galli (ECHCG) in the same assay as above. Settings: 312 h, rate 250 g/ha, evaluated after 13 days, read-out: Pre-emergence activity ECHCG (100=total damage to plant; 0=no damage to plant).
Format: in vivo
Protocol: as §1, §2

Row | Compound | pest or weed control at 250 g/ha [%]
13 | CCc1ccc(-c2ccc(Cl)c(C(F)(F)F)c2)cc1C1=C(O)C(C)(C)OC(C)(C)C1=O [Compound A-67] | 60
14 | CCc1ccc(-c2ccc(Cl)c(C#N)c2)cc1C1=C(O)C(C)(C)OC(C)(C)C1=O [Compound A-69] | 60
15 | CCc1ccc(-c2ccc(Cl)cc2C(F)(F)F)cc1C1=C(O)C(C)(C)OC(C)(C)C1=O [Compound A-72] | 40
16 | CCc1ccc(-c2cnc(Cl)cc2C)cc1C1=C(O)C(C)(C)OC(C)(C)C1=O [Compound A-73] | 10

These molecules were tested on Setaria faberi (SETFA) in the same assay as above. Settings: 312 h, rate 250 g/ha, evaluated after 13 days, read-out: Pre-emergence activity SETFA (100=total damage to plant; 0=no damage to plant).
Format: in vivo
Protocol: as §1, §2

Row | Compound | pest or weed control at 250 g/ha [%]
17 | CCc1ccc(-c2ccc(Cl)c(C(F)(F)F)c2)cc1C1=C(O)C(C)(C)OC(C)(C)C1=O [Compound A-67] | 90
18 | CCc1ccc(-c2ccc(Cl)c(C#N)c2)cc1C1=C(O)C(C)(C)OC(C)(C)C1=O [Compound A-69] | 80
19 | CCc1ccc(-c2ccc(Cl)cc2C(F)(F)F)cc1C1=C(O)C(C)(C)OC(C)(C)C1=O [Compound A-72] | 0
20 | CCc1ccc(-c2cnc(Cl)cc2C)cc1C1=C(O)C(C)(C)OC(C)(C)C1=O [Compound A-73] | 20

Each molecule was assayed on Alopecurus myosuroides (ALOMY) (assay: Example B post-emergence herbicidal activity, glasshouse pot test). Settings: 312 h, rate 250 g/ha, evaluated after 13 days, read-out: Post-emergence activity ALOMY (100=total damage to plant; 0=no damage to plant).
Format: in vivo
Protocol: as §1, §2

Row | Compound | pest or weed control at 250 g/ha [%]
21 | CCc1ccc(-c2ccc(Cl)c(C(F)(F)F)c2)cc1C1=C(O)C(C)(C)OC(C)(C)C1=O [Compound A-67] | 80
22 | CCc1ccc(-c2ccc(Cl)c(C#N)c2)cc1C1=C(O)C(C)(C)OC(C)(C)C1=O [Compound A-69] | 70
23 | CCc1ccc(-c2ccc(Cl)cc2C(F)(F)F)cc1C1=C(O)C(C)(C)OC(C)(C)C1=O [Compound A-72] | 20
24 | CCc1ccc(-c2cnc(Cl)cc2C)cc1C1=C(O)C(C)(C)OC(C)(C)C1=O [Compound A-73] | 20

What follows are molecules tested on Amaranthus retroflexus (AMARE) in the same assay as above. Settings: 312 h, rate 250 g/ha, evaluated after 13 days, read-out: Post-emergence activity AMARE (100=total damage to plant; 0=no damage to plant).
Format: in vivo
Protocol: as §1, §2

Row | Compound | pest or weed control at 250 g/ha [%]
25 | CCc1ccc(-c2ccc(Cl)c(C(F)(F)F)c2)cc1C1=C(O)C(C)(C)OC(C)(C)C1=O [Compound A-67] | 100
26 | CCc1ccc(-c2ccc(Cl)c(C#N)c2)cc1C1=C(O)C(C)(C)OC(C)(C)C1=O [Compound A-69] | 90
27 | CCc1ccc(-c2ccc(Cl)cc2C(F)(F)F)cc1C1=C(O)C(C)(C)OC(C)(C)C1=O [Compound A-72] | 60
28 | CCc1ccc(-c2cnc(Cl)cc2C)cc1C1=C(O)C(C)(C)OC(C)(C)C1=O [Compound A-73] | 0

These molecules were tested on Avena fatua (AVEFA) in the same assay as above. Settings: 312 h, rate 250 g/ha, evaluated after 13 days, read-out: Post-emergence activity AVEFA (100=total damage to plant; 0=no damage to plant).
Format: in vivo
Protocol: as §1, §2

Row | Compound | pest or weed control at 250 g/ha [%]
29 | CCc1ccc(-c2ccc(Cl)c(C(F)(F)F)c2)cc1C1=C(O)C(C)(C)OC(C)(C)C1=O [Compound A-67] | 80
30 | CCc1ccc(-c2ccc(Cl)c(C#N)c2)cc1C1=C(O)C(C)(C)OC(C)(C)C1=O [Compound A-69] | 90
31 | CCc1ccc(-c2ccc(Cl)cc2C(F)(F)F)cc1C1=C(O)C(C)(C)OC(C)(C)C1=O [Compound A-72] | 0
32 | CCc1ccc(-c2cnc(Cl)cc2C)cc1C1=C(O)C(C)(C)OC(C)(C)C1=O [Compound A-73] | 0

These molecules were tested on Echinochloa crus-galli (ECHCG) in the same assay as above. Settings: 312 h, rate 250 g/ha, evaluated after 13 days, read-out: Post-emergence activity ECHCG (100=total damage to plant; 0=no damage to plant).
Format: in vivo
Protocol: as §1, §2

Row | Compound | pest or weed control at 250 g/ha [%]
33 | CCc1ccc(-c2ccc(Cl)c(C(F)(F)F)c2)cc1C1=C(O)C(C)(C)OC(C)(C)C1=O [Compound A-67] | 100
34 | CCc1ccc(-c2ccc(Cl)c(C#N)c2)cc1C1=C(O)C(C)(C)OC(C)(C)C1=O [Compound A-69] | 100
35 | CCc1ccc(-c2ccc(Cl)cc2C(F)(F)F)cc1C1=C(O)C(C)(C)OC(C)(C)C1=O [Compound A-72] | 80
36 | CCc1ccc(-c2cnc(Cl)cc2C)cc1C1=C(O)C(C)(C)OC(C)(C)C1=O [Compound A-73] | 90

Each molecule was assayed on Setaria faberi (SETFA) in the same assay as above. Settings: 312 h, rate 250 g/ha, evaluated after 13 days, read-out: Post-emergence activity SETFA (100=total damage to plant; 0=no damage to plant).
Format: in vivo
Protocol: as §1, §2

Row | Compound | pest or weed control at 250 g/ha [%]
37 | CCc1ccc(-c2ccc(Cl)c(C(F)(F)F)c2)cc1C1=C(O)C(C)(C)OC(C)(C)C1=O [Compound A-67] | 30
38 | CCc1ccc(-c2ccc(Cl)c(C#N)c2)cc1C1=C(O)C(C)(C)OC(C)(C)C1=O [Compound A-69] | 100
39 | CCc1ccc(-c2ccc(Cl)cc2C(F)(F)F)cc1C1=C(O)C(C)(C)OC(C)(C)C1=O [Compound A-72] | 80
40 | CCc1ccc(-c2cnc(Cl)cc2C)cc1C1=C(O)C(C)(C)OC(C)(C)C1=O [Compound A-73] | 90

Source: patent publication US8680012B2, “4-phenyl-pyrane-3,5-diones,4-phenyl-thiopyrane-3,6-diones and cyclohexanetriones as novel herbicides” (Syngenta Crop Protection LLC, priority 2006, dated 2014)
